Tests used:
Details in all cases: exposure time: 72 h
[1] = system: E28 (patient-derived glioblastoma stem cells of classical subtype); experiment: surviving fraction (nuclei count normalised to DMSO); higher = more cells surviving (less toxic)
[2] = system: FT3469 (normal neural stem cell line); experiment: as above
[3] = system: E13 (patient-derived glioblastoma stem cells of classical subtype); experiment: as above
[4] = system: E57 (patient-derived glioblastoma stem cells of mesenchymal subtype); experiment: as above
[5] = system: E34 (patient-derived glioblastoma stem cells of proneural subtype); experiment: as above
[6] = system: E21 (patient-derived glioblastoma stem cells of mesenchymal subtype); experiment: as above
[7] = system: E31 (patient-derived glioblastoma stem cells of proneural subtype); experiment: as above
[8] = system: E28; experiment: phenotypic distance (Euclidean, principal components) from DMSO controls (arbitrary units); higher = stronger morphological change
[9] = system: FT3469; experiment: as above
[10] = system: E13; experiment: as above
[11] = system: E57; experiment: as above
[12] = system: E34; experiment: as above
[13] = system: E21; experiment: as above
[14] = system: E31; experiment: as above
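Wherever phenotypic distance (Euclidean, principal components) from DMSO controls is given: cell Painting imaging in 384-well plates, CellProfiler features reduced to at least 20 principal components, Euclidean distance versus same-plate DMSO vehicle wells (0.1% v/v), median over six images per well.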
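Wherever surviving fraction (nuclei count normalised to DMSO) is given: nuclei counted by high-content imaging of Hoechst-stained cells in laminin-coated 384-well plates, relative to 0.1% DMSO vehicle wells, with staurosporine as cell-death control.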

Compound `C[C@@H](O[C@H]1OCCN(Cc2n[nH]c(=O)[nH]2)[C@H]1c1ccc(F)cc1)c1cc(C(F)(F)F)cc(C(F)(F)F)c1` [Aprepitant] has a surviving fraction ([1]; 4.1 nM) of 0.85, a surviving fraction ([1]; 12.3 nM) of 1.09 and a surviving fraction ([1]; 37 nM) of 0.982. It also gave a surviving fraction ([1]; 111.1 nM) of 1.03, a surviving fraction ([1]; 333.3 nM) of 0.935 and a surviving fraction ([1]; 1000 nM) of 1.03. The surviving fraction ([1]; 3000 nM) was 0.879, the surviving fraction ([2]; 4.1 nM) was 0.843 and the surviving fraction ([2]; 12.3 nM) was 0.823. The surviving fraction ([2]; 37 nM) was 0.935, the surviving fraction ([2]; 111.1 nM) was 0.829 and the surviving fraction ([2]; 333.3 nM) was 0.999. It also gave a surviving fraction ([2]; 1000 nM) of 0.797, a surviving fraction ([2]; 3000 nM) of 0.929 and a surviving fraction ([3]; 4.1 nM) of 0.928. It also gave a surviving fraction ([3]; 12.3 nM) of 0.902, a surviving fraction ([3]; 37 nM) of 0.98 and a surviving fraction ([3]; 111.1 nM) of 0.996. For the same compound, the surviving fraction ([3]; 333.3 nM) was 0.901, the surviving fraction ([3]; 1000 nM) was 0.903 and the surviving fraction ([3]; 3000 nM) was 0.856. The surviving fraction ([4]; 4.1 nM) was 0.865, the surviving fraction ([4]; 12.3 nM) was 1.03 and the surviving fraction ([4]; 37 nM) was 1.02. For the same compound, the surviving fraction ([4]; 111.1 nM) was 0.945, the surviving fraction ([4]; 333.3 nM) was 0.985 and the surviving fraction ([4]; 1000 nM) was 1.07. It also gave a surviving fraction ([4]; 3000 nM) of 0.96, a surviving fraction ([5]; 4.1 nM) of 1.01 and a surviving fraction ([5]; 12.3 nM) of 1.01. The surviving fraction ([5]; 37 nM) was 0.914, the surviving fraction ([5]; 111.1 nM) was 1.03 and the surviving fraction ([5]; 333.3 nM) was 0.934. It also gave a surviving fraction ([5]; 1000 nM) of 0.948, a surviving fraction ([5]; 3000 nM) of 0.963 and a surviving fraction ([6]; 4.1 nM) of 1.02. For the same compound, the surviving fraction ([6]; 12.3 nM) was 0.857, the surviving fraction ([6]; 37 nM) was 0.96 and the surviving fraction ([6]; 111.1 nM) was 1.02. It also gave a surviving fraction ([6]; 333.3 nM) of 1.02, a surviving fraction ([6]; 1000 nM) of 0.955 and a surviving fraction ([6]; 3000 nM) of 0.913. For the same compound, the surviving fraction ([7]; 4.1 nM) was 1.03, the surviving fraction ([7]; 12.3 nM) was 0.789 and the surviving fraction ([7]; 37 nM) was 1.01. It also gave a surviving fraction ([7]; 111.1 nM) of 0.981, a surviving fraction ([7]; 333.3 nM) of 1.07 and a surviving fraction ([7]; 1000 nM) of 1.04. The surviving fraction ([7]; 3000 nM) was 1, the phenotypic distance ([8]; 4.1 nM) was 0.614 and the phenotypic distance ([8]; 12.3 nM) was 0.686. The phenotypic distance ([8]; 37 nM) was 0.613, the phenotypic distance ([8]; 111.1 nM) was 0.671 and the phenotypic distance ([8]; 333.3 nM) was 0.788. The phenotypic distance ([8]; 1000 nM) was 0.862, the phenotypic distance ([8]; 3000 nM) was 0.675 and the phenotypic distance ([9]; 4.1 nM) was 0.824. The phenotypic distance ([9]; 12.3 nM) was 0.817, the phenotypic distance ([9]; 37 nM) was 0.96 and the phenotypic distance ([9]; 111.1 nM) was 0.816. The phenotypic distance ([9]; 333.3 nM) was 0.735, the phenotypic distance ([9]; 1000 nM) was 0.537 and the phenotypic distance ([9]; 3000 nM) was 0.788. For the same compound, the phenotypic distance ([10]; 4.1 nM) was 0.787, the phenotypic distance ([10]; 12.3 nM) was 0.437 and the phenotypic distance ([10]; 37 nM) was 0.522. For the same compound, the phenotypic distance ([10]; 111.1 nM) was 0.344, the phenotypic distance ([10]; 333.3 nM) was 0.93 and the phenotypic distance ([10]; 1000 nM) was 0.532. The phenotypic distance ([10]; 3000 nM) was 1.13, the phenotypic distance ([11]; 4.1 nM) was 0.607 and the phenotypic distance ([11]; 12.3 nM) was 0.891. It also gave a phenotypic distance ([11]; 37 nM) of 0.573, a phenotypic distance ([11]; 111.1 nM) of 0.373 and a phenotypic distance ([11]; 333.3 nM) of 0.479. The phenotypic distance ([11]; 1000 nM) was 1.04, the phenotypic distance ([11]; 3000 nM) was 1.13 and the phenotypic distance ([12]; 4.1 nM) was 0.513. It also gave a phenotypic distance ([12]; 12.3 nM) of 0.635, a phenotypic distance ([12]; 37 nM) of 0.742 and a phenotypic distance ([12]; 111.1 nM) of 0.53. It also gave a phenotypic distance ([12]; 333.3 nM) of 0.573, a phenotypic distance ([12]; 1000 nM) of 0.615 and a phenotypic distance ([12]; 3000 nM) of 1.13. The phenotypic distance ([13]; 4.1 nM) was 3.49, the phenotypic distance ([13]; 12.3 nM) was 1.08 and the phenotypic distance ([13]; 37 nM) was 0.937. It also gave a phenotypic distance ([13]; 111.1 nM) of 0.517, a phenotypic distance ([13]; 333.3 nM) of 0.679 and a phenotypic distance ([13]; 1000 nM) of 0.478. The phenotypic distance ([13]; 3000 nM) was 1.36, the phenotypic distance ([14]; 4.1 nM) was 0.696 and the phenotypic distance ([14]; 12.3 nM) was 1.23. The phenotypic distance ([14]; 37 nM) was 0.463, the phenotypic distance ([14]; 111.1 nM) was 0.647 and the phenotypic distance ([14]; 333.3 nM) was 1.03. For the same compound, the phenotypic distance ([14]; 1000 nM) was 0.986 and the phenotypic distance ([14]; 3000 nM) was 1.02.

— the supplement of paper PMC13207355
